The values below come from patent US8524911B2, “3-arylamino pyridine derivatives” (Merck Serono SA, priority 2004, dated 2013).

Series [1] in a line: Microsomal stability assay, HLM. To be noted: pooled human liver microsomes, pH 7.4; 3 μM compound, 0.5 mg/ml human liver microsomes, 37° C., 2 mM NADPH; read-out: HLM t1/2. It is filed as in vitro ADME. How it is done: (§1) Assay 3: Microsomal Stability Assay
(§2) Compounds were tested on their stability in human, rat and mouse liver microsomal preparations (HLM, RLM and MLM respectively). At a final concentration of 3 μM, compounds were incubated at 37° C. with 0.5 mg/ml human, rat or mouse liver microsomes in a buffer containing 50 mM phosphate, pH 7.4 and 2 mM NADPH. Pooled human liver microsomes or pooled male rat liver microsomes (Sprague Dawley) were obtained from NatuTec (Frankfurt, Germany). Incubations without NADPH served as negative controls. Reactions were stopped after 0, 15, 30, 45 or 60 min by the addition of acetonitrile and microsomes were pelleted by centrifugation (10 min at 6200×g). Supernatants were analyzed by HPLC regarding the concentration of mother compound. Finally, the half life of compounds in the regarding microsomal preparation was calculated.
In general terms: Liver microsomes are vesicles of endoplasmic reticulum, rich in cytochrome P450 enzymes.

The nature of series [2]: Microsomal stability assay, RLM. The format is in vitro ADME. The note with it: male, Sprague Dawley, pooled rat liver microsomes, pH 7.4; 3 μM compound, 0.5 mg/ml rat liver microsomes, 37° C., 2 mM NADPH; read-out: RLM t1/2. On the procedure:
as §1, §2

Series [3] can be described thus: Microsomal stability assay, MLM. The format is in vitro ADME. To be noted: pH 7.4; 3 μM compound, 0.5 mg/ml mouse liver microsomes, 37° C., 2 mM NADPH; read-out: MLM t1/2. How it is done:
as §1, §2

In a further series the test system is Caco-2 cells. The series is described as follows: Caco-2 permeability assay. To be noted: 10 μM, pH 7.4, 120 minutes; for Caco A-B: Papp apical to basolateral; for Caco B-A: Papp basolateral to apical. The format is in vitro ADME. How it is done: Assay 4: Caco-2 Permeability Assay
Caco-2 cells obtained from the ATCC at passage number 27 are used. Cells (passage number 40-60) were seeded on to Millipore Multiscreen Caco-2 plates or Falcon HTS inserts at 1×10^5 cells/cm2. Cells were cultured for 20 days in DMEM and media was changed every two or three days. On day 20 the permeability study was performed.
Permeability was studied by applying compound to the apical surface of cell monolayers and measuring compound permeation into the basolateral compartment. The experiment was also performed in the reverse direction (B-A) to investigate active transport. Hanks Balanced Salt Solution (HBSS) pH 7.4 buffer with 25 mM HEPES and 10 mM glucose at 37° C. was used as the medium in permeability studies. Incubations were carried out in an atmosphere of 5% CO2 with a relative humidity of 95%.
The monolayers were prepared by rinsing both basolateral and apical surfaces twice with HBSS at 37° C. Cells were then incubated with HBSS in both apical and basolateral compartments for 40 minutes to stabilize physiological parameters.
HBSS was then removed from the apical compartment and replaced with test compound dosing solutions. The solutions were made by diluting 10 mM DMSO concentrates with HBSS to give a final test compound concentration of 10 μM (final DMSO concentration adjusted to 1%). The fluorescent integrity marker lucifer yellow was also included in the dosing solution. Analytical standards were made from dosing solutions. Test compound permeability was assessed in duplicate. On each plate compounds of known permeability characteristics were run as controls.
The apical compartment inserts were then placed into ‘companion’ plates containing fresh HBSS. For basolateral to apical (B-A) experiments the experiment was initiated by replacing buffer in the inserts then placing them in companion plates containing dosing solutions. At 120 minutes the companion plate was removed and apical and basolateral samples diluted for analysis by LC-MS/MS (the donor compartment was also sampled to permit determination of starting concentration after non-specific binding has occurred).
The integrity of the monolayers throughout the experiment is checked by monitoring lucifer yellow permeation using fluorimetric analysis. Lucifer yellow permeation was low if monolayers have not been damaged. Test and control compounds were quantified by LC-MS/MS cassette analysis using a 5-point calibration with appropriate dilution of the samples. Should lucifer yellow Papps were above QC limits in more than one well per test compound, the compound was re-tested.
The permeability coefficient for each compound (Papp) was calculated from the following equation: Papp=[dQ/dt]/[C0×A]
Whereby dQ/dt is the rate of permeation of the drug across the cells, C0 is the donor compartment concentration at time zero and A is the area of the cell monolayer. C0 is obtained from analysis of the donor compartment at the end of the incubation period.
Test compounds were grouped into low, medium or high absorption potential based on comparison with control compounds, which have known human absorption.
In addition, permeation was studied in both directions across the cells, and an asymmetry index was reported from mean A-B and B-A data. This was derived from: Papp(B-A)/Papp(A-B)
Wherein “+” means a caco A-B and caco B-A value of 1-10 and “++” means a caco A-B and caco B-A value of 11-100.
On the technique in general: Caco-2 cells form a polarised layer with tight junctions and transporters.

The target of a further series is human MEK1 (Homo sapiens, UniProt Q02750). In words: MEK-1 Enzyme Assay (LANCE-HTRF). The note with it: 100 nM MEK1, 15 μM ATP, 300 nM ERK2, two hours; read-out: MEK inhibition. It is filed as biochemical. The procedure, abridged: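 TR-FRET readout of MEK1-catalysed ERK1 phosphorylation; after a 2 h reaction, Eu-anti-PY20 (5 nM) and anti-GST-APC (50 nM) were added in buffer with 50 mM EDTA and 0.05% BSA, then incubated 1 h in the dark.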
Sequence of human MEK1 (Q02750 whole entry): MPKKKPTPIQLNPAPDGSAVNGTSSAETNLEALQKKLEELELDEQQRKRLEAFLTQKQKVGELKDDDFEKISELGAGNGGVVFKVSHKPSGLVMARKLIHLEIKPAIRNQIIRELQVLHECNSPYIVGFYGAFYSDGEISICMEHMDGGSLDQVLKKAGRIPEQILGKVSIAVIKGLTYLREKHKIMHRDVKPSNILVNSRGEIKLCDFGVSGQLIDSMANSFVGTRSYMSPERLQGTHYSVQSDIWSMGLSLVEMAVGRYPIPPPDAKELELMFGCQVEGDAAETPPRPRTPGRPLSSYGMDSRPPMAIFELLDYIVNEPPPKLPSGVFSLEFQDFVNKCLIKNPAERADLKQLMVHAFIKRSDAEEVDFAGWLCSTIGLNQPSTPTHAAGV
A general note: Time-resolved FRET reads energy transfer from a long-lived donor to a nearby acceptor.

The next series has as its system Murine colon C26 cells. The series is described as follows: Tumor cell proliferation assay (ATP Lite), C26. The format is cell-based. The note with it: Mus musculus, 96 h, 4 days. The method, boiled down:
(§3)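 Cells seeded at 1500/well (C26) or 2000/well (A375, MiaPaCa-2) grew overnight, then were exposed to serially diluted compounds (0.25% DMSO final) for 4 days in serum-containing DMEM or RPMI. Viability read by ATPlite luminescence; IC50 is the concentration giving 50% cell death.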

The subject of series [4] is human melanoma A375 cells. In words: Tumor cell proliferation assay (ATP Lite), A375. The format is cell-based. To be noted: A-375, 96 h, 4 days. The method, boiled down:
as §3

A further series has as its system human melanoma cell MeI5. The series is described as follows: Tumor cell proliferation assay (ATP Lite), MeI5. The format is cell-based. To be noted: MeI5 cells. On the procedure:
Assay 2: Tumor Cell Proliferation Assays (ATP Lite)
Murine colon C26, human melanoma A375 and MeI5 or human pancreatic MiaPaCa-2 cells were plated in 96 well Corning white plates (1500 cells/well for C26, and 2000 cells/well for A375, and MiaPaCa-2) and cultured overnight at 37° C. in 5% CO2. Inhibitors were serially diluted in 100% DMSO and subsequently added to cells to reach a final concentration of 0.25% DMSO. The cells were incubated for 4 days in the presence of test compounds in cell growth media (DMEM with 10% fetal bovine serum, 2 mM glutamine for C26, and MiaPaCa-2, and RPMI with 10% fetal bovine serum, 2 mM glutamine for A375). Cell proliferation was quantitated using the ATP lite cell proliferation kit (Packard). Columns 4-6 show the concentration of compounds required to induce 50% cell death (IC50 in μM) of […]. With “+” meaning 3 μM<IC50≦10 μM and “++” IC50≦3 μM and “n.d.” means not determined. Few compounds were also tested on human melanoma cell MeI5.

The subject of a further series is Tumors. To be noted: patients; cited from earlier work.
The conditions of series [5]: cited from earlier work.

Consider `OCCNc1nnc(-c2ccncc2Nc2ccc(Br)cc2F)o1` [Example 127, 2-{5-[3-(4-Bromo-2-fluoro-phenylamino)-pyridin-4-yl]-[1,3,4]oxadiazol-2-ylamino}-ethanol], for which the half-life at 3 µM is over 2 h in series [1], over 2 h in series [2] and 0.0167 to 0.5 h in series [3]. Also, the “Caco A-B” value in the series on Caco-2 cells is “++ (a caco A-B and caco B-A value of 11-100)”. Moreover, the “Caco B-A” value in the series on Caco-2 cells was “++ (a caco A-B and caco B-A value of 11-100)”.

Consider `C=CCNc1nnc(-c2ccncc2Nc2ccc(Br)cc2C)o1` [Example 129, [4-(5-Allylamino-[1,3,4]oxadiazol-2-yl)-pyridin-3-yl]-(4-bromo-2-methyl-phenyl)-amine], for which, at human MEK1, the IC50 is under 1 µM. Besides, the figures for the half-life at 3 µM in series [1], in [2] and in series [3] were over 2 h, 0.517 to 2 h and over 2 h, respectively. Besides, the “Caco A-B” value in the series on Caco-2 cells was “++ (a caco A-B and caco B-A value of 11-100)”. In addition, the “Caco B-A” value with Caco-2 cells is “++ (a caco A-B and caco B-A value of 11-100)”.

For `CCONC(=O)c1ccncc1Nc1ccc(I)cc1C` [Example 5, N-Ethoxy-3-[(4-iodo-2-methylphenyl)amino]isonicotinamide], the IC50 at human MEK1 is under 1 µM; in the series with Murine colon C26 cells, 3 to 10 µM; in series [4], at most 3 µM; in the series on human melanoma cell MeI5, at most 3 µM.

Consider `CCONC(=O)c1ccncc1Nc1ccc(Br)cc1C` [Example 4, 3-[(4-Bromo-2-methylphenyl)amino]-N-ethoxyisonicotinamide], for which the values for the IC50 (on human MEK1; in [4]; with human melanoma cell MeI5) were under 1 µM, at most 3 µM and 3 to 10 µM, respectively. The half-life at 3 µM in series [1] and in [2] was 0.517 to 2 h in each case.

For `Cc1cc(I)ccc1Nc1cnccc1C(=O)NOC[C@@H](O)CO` [Example 124, N—((S)-2,3-Dihydroxy-propoxy)-3-(4-iodo-2-methyl-phenylamino)-isonicotinamide], the IC50 at human MEK1 is under 1 µM; in the series with Murine colon C26 cells it was 3 to 10 µM; with human melanoma cell MeI5 it was at most 3 µM.

For the molecule `CNCCNc1nnc(-c2ccncc2Nc2ccc(Br)cc2F)o1` [Example 128, N-{5-[3-(4-Bromo-2-fluoro-phenylamino)-pyridin-4-yl]-[1,3,4]oxadiazol-2-yl}-N′-methyl-ethane-1,2-diamine], the IC50 at human MEK1 was under 1 µM. Further, the half-life at 3 µM in series [1] was over 2 h. In addition, the half-life at 3 µM in [2] is 0.517 to 2 h. Besides, in the series on Caco-2 cells, the “Caco A-B” value was “++ (a caco A-B and caco B-A value of 11-100)”; the “Caco B-A” value is “++ (a caco A-B and caco B-A value of 11-100)”.

`O=C(NOCC1CC1)c1ccc(F)c(F)c1Nc1ccc(I)cc1Cl` [PD-184352]: the “efficacy in clinical phase II trials” value in the series with Tumors is on record as “lacking efficacy”. For the same molecule, in series [5], the bioavailability result is “low”.

Take `Cc1cc(I)ccc1Nc1cnccc1C(=O)NOC[C@H](O)CO` [Example 9, 3-[(2-methyl-4-iodophenyl)amino]-N-{[(2R)-2,3-dihydroxypropyl]oxy}-isonicotinamide]: the IC50 at human MEK1 was under 1 µM; in the series on Murine colon C26 cells it was 3 to 10 µM; in series [4], at most 3 µM. Further, the half-life at 3 µM in series [1], in [2] and in series [3] was over 2 h throughout. Besides, the “Caco A-B” value with Caco-2 cells was “+ (a caco A-B and caco B-A value of 1-10)”. For the same molecule, in the series on Caco-2 cells, the “Caco B-A” value was “++ (a caco A-B and caco B-A value of 11-100)”.
